# Reference: ChEMBL document CHEMBL1201862, “PubChem BioAssay data set” (2004)
#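 In this assay, cells in 96-well plates receive the compound at five concentrations for 48 hours. Endpoints are linearly interpolated between the surrounding concentrations. At the GI50, growth is halved.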 Active and inactive are the calls of the source. Cut-off read from the data, not from the text of the source: active = GI50 up to about 1.1 µM and inactive = higher.
# Assays:
# Test in all cases: inhibition of tumour cell growth, NCI panel, 48 h
# NCI/ADR-RES = tested on: NCI/ADR-RES
# ACHN = tested on: ACHN
# RPMI-8226 = tested on: RPMI-8226
# K562 = tested on: K562
# MDA-N = tested on: MDA-N
# OVCAR-5 = tested on: OVCAR-5
# UO-31 = tested on: UO-31
# MDA-MB-231 = tested on: MDA-MB-231
# HCC 2998 = tested on: HCC 2998
# HCT-116 = tested on: HCT-116
# UACC-257 = tested on: UACC-257
# SW-620 = tested on: SW-620
# HOP-62 = tested on: HOP-62
# SK-MEL-2 = tested on: SK-MEL-2
# SR = tested on: SR
# HCT-15 = tested on: HCT-15
# NCI-H23 = tested on: NCI-H23
# A549 = tested on: A549
# SNB-75 = tested on: SNB-75
# DU-145 = tested on: DU-145
# SK-MEL-5 = tested on: SK-MEL-5
# PC-3 = tested on: PC-3
# OVCAR-3 = tested on: OVCAR-3
# A498 = tested on: A498
# MCF7 = tested on: MCF7
# SN12C = tested on: SN12C
# MOLT-4 = tested on: MOLT-4
# SK-MEL-28 = tested on: SK-MEL-28
# SK-OV-3 = tested on: SK-OV-3
# HT-29 = tested on: HT-29
# OVCAR-4 = tested on: OVCAR-4
# LOX IMVI = tested on: LOX IMVI
# MDA-MB-435 = tested on: MDA-MB-435
# CAKI-1 = tested on: CAKI-1
# Malme-3M = tested on: Malme-3M
# M14 = tested on: M14
# T47D = tested on: T47D
# SNB-19 = tested on: SNB-19
# NCI-H226 = tested on: NCI-H226
# RXF 393 = tested on: RXF 393
# UACC-62 = tested on: UACC-62
# KM12 = tested on: KM12
# HOP-92 = tested on: HOP-92
# TK-10 = tested on: TK-10
# SF-295 = tested on: SF-295
# EKVX = tested on: EKVX
# U-251 = tested on: U-251
# CCRF-CEM = tested on: CCRF-CEM
# COLO 205 = tested on: COLO 205
# OVCAR-8 = tested on: OVCAR-8
# IGROV-1 = tested on: IGROV-1
# NCI-H460 = tested on: NCI-H460
# 786-0 = tested on: 786-0
# BT-549 = tested on: BT-549
# SF-268 = tested on: SF-268
# SF-539 = tested on: SF-539
# HL-60 = tested on: HL-60
# NCI-H522 = tested on: NCI-H522
# Hs-578T = tested on: Hs-578T
smiles,measurement,setting,value
COc1ccc(/C=N/NC(=O)c2ccccc2Nc2ccccc2C(=O)N/N=C/c2ccc(OC)cc2)cc1,GI50,NCI/ADR-RES,> 100 µM (inactive)
same,GI50,ACHN,> 100 µM (inactive)
same,GI50,RPMI-8226,> 100 µM (inactive)
same,GI50,K562,> 100 µM (inactive)
same,GI50,MDA-N,> 100 µM (inactive)
same,GI50,OVCAR-5,> 100 µM (inactive)
same,GI50,UO-31,> 100 µM (inactive)
same,GI50,MDA-MB-231,65.6 µM (inactive)
same,GI50,HCC 2998,> 100 µM (inactive)
same,GI50,HCT-116,> 100 µM (inactive)
same,GI50,UACC-257,> 100 µM (inactive)
same,GI50,SW-620,> 100 µM (inactive)
same,GI50,HOP-62,> 100 µM (inactive)
same,GI50,SK-MEL-2,> 100 µM (inactive)
same,GI50,SR,> 100 µM (inactive)
same,GI50,HCT-15,> 100 µM
same,GI50,NCI-H23,> 100 µM (inactive)
same,GI50,A549,> 100 µM (inactive)
same,GI50,SNB-75,> 100 µM (inactive)
same,GI50,DU-145,> 100 µM (inactive)
same,GI50,SK-MEL-5,> 100 µM (inactive)
same,GI50,PC-3,> 100 µM (inactive)
same,GI50,OVCAR-3,> 100 µM (inactive)
same,GI50,A498,> 100 µM (inactive)
same,GI50,MCF7,> 100 µM (inactive)
same,GI50,SN12C,> 100 µM (inactive)
same,GI50,MOLT-4,> 100 µM (inactive)
same,GI50,SK-MEL-28,> 100 µM (inactive)
same,GI50,SK-OV-3,> 100 µM (inactive)
same,GI50,HT-29,> 100 µM (inactive)
same,GI50,OVCAR-4,> 100 µM (inactive)
same,GI50,LOX IMVI,> 100 µM (inactive)
same,GI50,MDA-MB-435,> 100 µM (inactive)
same,GI50,CAKI-1,> 100 µM (inactive)
same,GI50,Malme-3M,> 100 µM (inactive)
same,GI50,M14,> 100 µM (inactive)
same,GI50,T47D,> 100 µM (inactive)
same,GI50,SNB-19,> 100 µM (inactive)
same,GI50,NCI-H226,> 100 µM (inactive)
same,GI50,RXF 393,> 100 µM (inactive)
same,GI50,UACC-62,> 100 µM (inactive)
same,GI50,KM12,> 100 µM (inactive)
same,GI50,HOP-92,> 100 µM (inactive)
same,GI50,TK-10,> 100 µM (inactive)
same,GI50,SF-295,> 100 µM (inactive)
same,GI50,EKVX,> 100 µM (inactive)
same,GI50,U-251,> 100 µM (inactive)
same,GI50,CCRF-CEM,> 100 µM (inactive)
same,GI50,COLO 205,> 100 µM (inactive)
same,GI50,OVCAR-8,> 100 µM (inactive)
same,GI50,IGROV-1,> 100 µM (inactive)
same,GI50,NCI-H460,> 100 µM (inactive)
same,GI50,786-0,> 100 µM (inactive)
same,GI50,BT-549,> 100 µM (inactive)
same,GI50,SF-268,> 100 µM (inactive)
O=C(Nc1c(Cl)cccc1Cl)c1c(Cl)c(Cl)c(Cl)c(Cl)c1-c1nc2ccccc2[nH]1,GI50,NCI/ADR-RES,51.1 µM (inactive)
same,GI50,ACHN,50.1 µM (inactive)
same,GI50,RPMI-8226,37.2 µM (inactive)
same,GI50,K562,59.3 µM (inactive)
same,GI50,MDA-N,36 µM (inactive)
same,GI50,OVCAR-5,> 100 µM (inactive)
same,GI50,UO-31,80.5 µM (inactive)
same,GI50,SF-539,0.535 µM (active)
same,GI50,HCC 2998,38.5 µM (inactive)
same,GI50,HCT-116,43.5 µM (inactive)
same,GI50,UACC-257,> 100 µM (inactive)
same,GI50,SW-620,64.6 µM (inactive)
same,GI50,HOP-62,0.0501 µM (active)
same,GI50,SK-MEL-2,> 100 µM (inactive)
same,GI50,SR,27.7 µM (inactive)
same,GI50,HCT-15,98.9 µM
same,GI50,NCI-H23,76.7 µM (inactive)
same,GI50,A549,0.601 µM (active)
same,GI50,SNB-75,0.313 µM (active)
same,GI50,DU-145,62.2 µM (inactive)
same,GI50,SK-MEL-5,29.9 µM (inactive)
same,GI50,PC-3,> 100 µM (inactive)
same,GI50,OVCAR-3,25.4 µM (inactive)
same,GI50,A498,11.4 µM (inactive)
same,GI50,MCF7,34.6 µM (inactive)
same,GI50,SN12C,49.5 µM (inactive)
same,GI50,MOLT-4,75.3 µM (inactive)
same,GI50,HL-60,> 100 µM (inactive)
same,GI50,SK-MEL-28,70.6 µM (inactive)
same,GI50,SK-OV-3,0.0507 µM (active)
same,GI50,HT-29,26 µM (inactive)
same,GI50,OVCAR-4,43.6 µM (inactive)
same,GI50,LOX IMVI,46.8 µM (inactive)
same,GI50,MDA-MB-435,38.2 µM (inactive)
same,GI50,CAKI-1,62.7 µM (inactive)
same,GI50,Malme-3M,> 100 µM (inactive)
same,GI50,M14,22.1 µM (inactive)
same,GI50,T47D,28 µM (inactive)
same,GI50,NCI-H522,37 µM (inactive)
same,GI50,NCI-H226,14.5 µM (inactive)
same,GI50,Hs-578T,61.8 µM (inactive)
same,GI50,RXF 393,18 µM (inactive)
same,GI50,UACC-62,25.4 µM (inactive)
same,GI50,KM12,0.155 µM (active)
same,GI50,HOP-92,29.9 µM (inactive)
same,GI50,SF-295,0.0468 µM (active)
same,GI50,EKVX,9.48 µM (inactive)
same,GI50,CCRF-CEM,> 100 µM (inactive)
same,GI50,COLO 205,42.8 µM (inactive)
same,GI50,OVCAR-8,33 µM (inactive)
same,GI50,IGROV-1,14.2 µM (inactive)
same,GI50,NCI-H460,> 100 µM (inactive)
same,GI50,786-0,36.4 µM (inactive)
same,GI50,BT-549,56.9 µM (inactive)
same,GI50,SF-268,63.7 µM (inactive)
COc1ccc(NC(C)=O)cc1N1C(=O)/C(=C\c2cccc(Oc3ccccc3)c2)SC1c1ccccc1 (stereo unspecified),GI50,NCI/ADR-RES,19.2 µM (inactive)
same,GI50,ACHN,31.3 µM (inactive)
same,GI50,RPMI-8226,17.4 µM (inactive)
same,GI50,K562,19.8 µM (inactive)
same,GI50,MDA-N,26.2 µM (inactive)
same,GI50,OVCAR-5,29.3 µM (inactive)
same,GI50,UO-31,17.3 µM (inactive)
same,GI50,MDA-MB-231,37.8 µM (inactive)
same,GI50,HCC 2998,36.1 µM (inactive)
same,GI50,HCT-116,11.6 µM (inactive)
same,GI50,UACC-257,40.6 µM (inactive)
same,GI50,SW-620,21.6 µM (inactive)
same,GI50,HOP-62,34.3 µM (inactive)
same,GI50,SK-MEL-2,30.5 µM (inactive)
same,GI50,SR,3.7 µM (inactive)
same,GI50,HCT-15,33.1 µM
same,GI50,NCI-H23,46 µM (inactive)
same,GI50,A549,40.4 µM (inactive)
same,GI50,SNB-75,38.6 µM (inactive)
same,GI50,DU-145,35.3 µM (inactive)
same,GI50,SK-MEL-5,30.5 µM (inactive)
same,GI50,PC-3,21.7 µM (inactive)
same,GI50,OVCAR-3,21.8 µM (inactive)
same,GI50,A498,56.4 µM (inactive)
same,GI50,MCF7,23.8 µM (inactive)
same,GI50,SN12C,20.4 µM (inactive)
same,GI50,MOLT-4,10.1 µM (inactive)
same,GI50,HL-60,16.9 µM (inactive)
same,GI50,SK-MEL-28,28.3 µM (inactive)
same,GI50,SK-OV-3,49 µM (inactive)
same,GI50,HT-29,18.3 µM (inactive)
same,GI50,OVCAR-4,14.2 µM (inactive)
same,GI50,LOX IMVI,13.4 µM (inactive)
same,GI50,MDA-MB-435,23.3 µM (inactive)
same,GI50,CAKI-1,28.4 µM (inactive)
same,GI50,Malme-3M,65.6 µM (inactive)
same,GI50,M14,34.1 µM (inactive)
same,GI50,T47D,23.4 µM (inactive)
same,GI50,NCI-H522,28.4 µM (inactive)
same,GI50,SNB-19,69.3 µM (inactive)
same,GI50,NCI-H226,82.2 µM (inactive)
same,GI50,RXF 393,39.7 µM (inactive)
same,GI50,UACC-62,26.7 µM (inactive)
same,GI50,KM12,37.6 µM (inactive)
same,GI50,HOP-92,20.9 µM (inactive)
same,GI50,TK-10,49.3 µM (inactive)
same,GI50,SF-295,28.4 µM (inactive)
same,GI50,EKVX,33.3 µM (inactive)
same,GI50,U-251,25.8 µM (inactive)
same,GI50,CCRF-CEM,10.3 µM (inactive)
same,GI50,COLO 205,19.4 µM (inactive)
same,GI50,OVCAR-8,22.5 µM (inactive)
same,GI50,IGROV-1,27.4 µM (inactive)
same,GI50,NCI-H460,36.4 µM (inactive)
same,GI50,786-0,24.3 µM (inactive)
same,GI50,BT-549,30.5 µM (inactive)
